We go through seven compounds from PubChem BioAssay (NCI).

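The compound was tested at five concentrations on cells cultured in 96-well plates, with a 48-hour exposure period. GI50 = concentration required for 50% inhibition of growth. TGI: concentration producing complete growth inhibition.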 A value given as a limit tells only on which side of the number the result lay.

Common to all, as to test: NCI tumour cell line growth inhibition, 48 h
In assay [1] the test system is MDA-MB-231 breast.
In assay [2] the test system is RPMI-8226 leukemia.
Assay [3] has as its system DU-145 prostate.
The test system of assay [4] is 786-0 renal.
Assay [5] deals with M14 melanoma.
Assay [6] has as its system SF-268 CNS.
For assay [7], the system named is NCI-H23 lung.
The subject of assay [8] is NCI-H226 lung.
Assay [9] has as its system SNB-19 CNS.
In assay [10] the test system is HT29 colon.

For the compound `CN(C)CC1CC/C(=C\c2ccc(O)cc2)C1=O` (stereo not given), the TGI in assay [1] was found to be 9.22 µM; in [2], 4 µM; in [3], 29.6 µM; in assay [4], 4.91 µM; in assay [5], 4.95 µM; in [6], 23.1 µM. For the same compound, the TGI in [7] stood at 13.2 µM; in assay [8], 25.6 µM; in assay [9], 31.3 µM; in [10], 11.5 µM.

Regarding `Nc1c(C(=O)Nc2cccc(C(F)(F)F)c2)sc2nc3c(cc12)CCCCC3`, the GI50 in [1] is 4.4 µM; in assay [2], 4.32 µM; in assay [3], 4.81 µM; in assay [4], 1.58 µM; in assay [5], 4.15 µM; in assay [6] it was 2.99 µM. Further, the GI50 was 1.72 µM in assay [7], 1.57 µM in assay [8], 4.24 µM in assay [9] and 7.06 µM in [10]. For the same compound, the TGI was 22.7 µM in assay [1]; 35.5 µM in assay [2]; 28.4 µM in [3]; 3.13 µM in [4]; 41.5 µM in assay [5]; 16.2 µM in assay [6]. In addition, the TGI in [7] is 10.9 µM; in assay [8], 16 µM; in assay [9] it was 19.8 µM; in assay [10] it was greater than 100 µM.

On to `O=C(/C=C/c1ccc(O)cc1)c1ccc(O)cc1`, for which the TGI in [1] was greater than 100 µM; in assay [2] it was 69 µM; in assay [3], 99.9 µM; in assay [4], greater than 100 µM; in assay [5] it was 42.7 µM; in assay [6] it was 71.8 µM. Further, the TGI is 62.6 µM in [7], 27.2 µM in assay [8], greater than 78.2 µM in [9] and 48.5 µM in assay [10].

`O=C(/C(=C/c1ccc([N+](=O)[O-])cc1)SCc1ccccc1)c1ccc(Cl)cc1`: the GI50 in [1] is 2.67 µM; in assay [2], 1.78 µM; in assay [3], 3.6 µM; in assay [4], 1.77 µM; in [5] it was 2.63 µM; in assay [6], 3.09 µM. The GI50 in assay [7] was 3.14 µM; in [8], 4.53 µM; in assay [9], 3.59 µM; in [10], 2.54 µM. Further, the TGI in assay [1] is 10.2 µM; in assay [2], 5.03 µM; in [3], 13.8 µM; in [4], 3.41 µM; in [5] it was 8.59 µM; in assay [6], 13.1 µM. The TGI in [7] is 14.1 µM; in assay [8], 34.1 µM; in assay [9], 15.6 µM; in assay [10], 5.75 µM.

On to `Nc1ccccc1SC(CC(=O)c1ccccc1)c1cccc([N+](=O)[O-])c1` (stereo not given), for which the GI50 was 14.4 µM in assay [1]; 3.89 µM in assay [2]; 14.7 µM in assay [3]; 18.9 µM in [4]; 17.3 µM in assay [5]; 16.3 µM in [6]. In addition, the GI50 in assay [7] was 17.6 µM; in assay [8], 17.1 µM; in [9], 14.3 µM; in [10], 5.79 µM. For the same compound, the TGI in assay [1] was 28.3 µM; in assay [2], 19 µM; in assay [3] it was 28 µM; in assay [4], 33.3 µM; in assay [5] it was 32.5 µM; in assay [6] it was 31.3 µM. Also, the TGI in assay [7] stood at 32.6 µM; in [8], 35.2 µM; in assay [9], 27.4 µM; in assay [10] it was 23 µM.

On to `COc1ccc2nc3cc(Cl)ccc3c(NCCNCC(C)O)c2c1` (stereo not given), for which the GI50 was 1.49 µM in assay [1]; 2.54 µM in [2]; 2.12 µM in [3]; 1.68 µM in assay [4]; 1.68 µM in assay [5]; 2.36 µM in [6]. Besides, the GI50 in assay [7] was 1.93 µM; in [8], 2.3 µM; in assay [9], 2.19 µM; in assay [10], 0.691 µM. For the same compound, the TGI in [1] is 4.28 µM; in assay [2], 6.36 µM; in assay [3], 8.57 µM; in assay [4], 5.83 µM; in [5], 3.6 µM; in [6], 12.3 µM. The TGI in [7] was found to be 6.16 µM; in [8] it was 6.04 µM; in assay [9], 9.78 µM; in assay [10], 3.03 µM.

Take `COc1ccc2nc(NC(=O)CSc3nnc4n3S(=O)(=O)c3ccccc3N4c3ccccc3)sc2c1`: the GI50 in assay [1] is 23.7 µM; in assay [2], 1.45 µM; in assay [3] it was greater than 100 µM; in assay [4], 12.4 µM; in assay [5] it was greater than 100 µM; in assay [6] it was greater than 100 µM. The GI50 in assay [7], in assay [8], in assay [9] and in assay [10] was greater than 100 µM in each case. Moreover, the TGI in assay [1] was greater than 100 µM; in assay [2] it was greater than 100 µM; in [3], greater than 100 µM; in assay [4], 93.1 µM; in assay [5], greater than 100 µM; in assay [6], greater than 100 µM. For the same compound, the TGI in assay [7], in assay [8], in assay [9] and in assay [10] was greater than 100 µM throughout.
